Measurements taken from US12201601B2, “Treatment for obesity” (Axsome Malta Ltd., priority 2013, dated 2025).

Assay: 6-week randomized, double blind, active and placebo-controlled study in adult subjects with major depressive disorder: body weight
Type: in vivo, Humans
Procedure: A 6-week randomized, double blind, parallel group, active and placebo-controlled study was carried out to assess the efficacy of R228060 in adult subjects with major depressive disorder (MDD). Body weight was monitored throughout the study.

[1] = Paroxetine (N = 117), baseline to endpoint
[2] = Paroxetine group, baseline to endpoint

For `Fc1ccc([C@@H]2CCNC[C@H]2COc2ccc3c(c2)OCO3)cc1` [Paroxetine, reference compound], the “Subjects with weight Decrease ≥7%” value [1] was 0 n (%), the “Subjects with weight Increase <7%” value [1] was 54 (46.2) n (%) and the “Subjects with weight Increase ≥7%” value [1] was 1 (0.9) n (%). The “Subjects with weight No change/decrease <7%” value [1] was 62 (53.0) n (%), the “Weight, End point, Mean” value (Paroxetine group, 6-week study) was 83.2 kg and the “Weight, End point, Median” value (Paroxetine group, 6-week study) was 79.8 kg. For the same compound, the Mean weight gain [2] was 0.1 kg, the “Weight, Change from Baseline, Mean” value [2] was 0.1 kg and the “Weight, Change from Baseline, Median” value [2] was 0.0 kg. For the same compound, the “Mean change from baseline to endpoint in BMI” value (paroxetine) was 0.
